Test results reported in patent publication US20200002283A1, “PYRAZOLE DERIVATIVES HAVING ACTIVITY AGAINST PAIN” (priority 2016, published 2020).
Read-outs that look alike come from different tables or passages of the source.

Assays:
human μ-opioid receptor = biological target: T1, human μ-opioid receptor (Homo sapiens, UniProt P35372); experiment: Human μ-opioid receptor radioligand assay ([3H]-DAMGO); assay type: binding
T1 construct: expressed in transfected cells; host or cells: CHO-K1
Procedure: Human μ-Opioid Receptor Radioligand Assay
To investigate binding properties of test compounds to human μ-opioid receptor, transfected CHO-K1 cell membranes and [^3H]-DAMGO (Perkin Elmer, ES-542-C), as the radioligand, were used. The assay was carried out with 20 μg of membrane suspension, 1 nM of [^3H]-DAMGO in either absence or presence of either buffer or 10 μM Naloxone for total and non-specific binding, respectively. Binding buffer contained Tris-HCl 50 mM, MgCl2 5 mM at pH 7.4. Plates were incubated at 27° C. for 60 minutes. After the incubation period, the reaction mix was then transferred to MultiScreen HTS, FC plates (Millipore), filtered and plates were washed 3 times with ice-cold 10 mM Tris-HCL (pH 7.4). Filters were dried and counted at approximately 40% efficiency in a MicroBeta scintillation counter (Perkin-Elmer) using EcoScint liquid scintillation cocktail.

[1] = biological target: Human α2δ-1 subunit of Cav2.2 calcium channel (Homo sapiens, UniProt P54289); experiment: Human α2δ-1 subunit of Cav2.2 calcium channel assay ([3H]-Gabapentin binding)
Sequence of Human α2δ-1 subunit of Cav2.2 calcium channel (P54289 25-1103): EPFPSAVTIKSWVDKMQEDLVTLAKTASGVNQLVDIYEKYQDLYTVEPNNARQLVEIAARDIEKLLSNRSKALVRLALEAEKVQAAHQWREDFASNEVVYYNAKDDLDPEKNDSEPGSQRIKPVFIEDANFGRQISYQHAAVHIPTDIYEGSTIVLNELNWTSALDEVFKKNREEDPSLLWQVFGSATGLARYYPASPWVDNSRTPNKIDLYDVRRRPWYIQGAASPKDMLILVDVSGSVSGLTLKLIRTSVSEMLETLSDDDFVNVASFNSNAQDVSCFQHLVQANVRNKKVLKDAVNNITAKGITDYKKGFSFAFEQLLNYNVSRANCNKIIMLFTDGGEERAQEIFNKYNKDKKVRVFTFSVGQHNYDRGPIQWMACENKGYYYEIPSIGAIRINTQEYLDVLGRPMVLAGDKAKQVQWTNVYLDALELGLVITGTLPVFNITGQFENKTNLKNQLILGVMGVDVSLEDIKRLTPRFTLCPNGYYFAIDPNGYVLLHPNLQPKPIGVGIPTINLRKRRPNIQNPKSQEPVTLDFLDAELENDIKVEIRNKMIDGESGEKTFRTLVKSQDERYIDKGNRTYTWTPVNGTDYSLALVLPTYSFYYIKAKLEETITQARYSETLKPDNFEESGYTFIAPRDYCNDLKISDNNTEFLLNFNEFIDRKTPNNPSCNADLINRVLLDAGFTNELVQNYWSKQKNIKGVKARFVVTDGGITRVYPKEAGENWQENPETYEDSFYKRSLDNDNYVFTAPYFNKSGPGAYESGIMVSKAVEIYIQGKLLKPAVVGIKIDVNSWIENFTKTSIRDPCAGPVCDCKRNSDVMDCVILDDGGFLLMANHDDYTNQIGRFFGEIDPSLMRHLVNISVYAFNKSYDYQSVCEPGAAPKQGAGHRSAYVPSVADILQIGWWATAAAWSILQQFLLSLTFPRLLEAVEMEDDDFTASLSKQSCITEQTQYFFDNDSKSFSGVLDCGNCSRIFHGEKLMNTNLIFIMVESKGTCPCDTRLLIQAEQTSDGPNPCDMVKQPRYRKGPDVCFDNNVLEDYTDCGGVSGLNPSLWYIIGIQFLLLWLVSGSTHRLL
Procedure: Human α2δ-1 Subunit of Cav2.2 Calcium Channel Assay
Human α2δ-1 enriched membranes (2.5 μg) were incubated with 15 nM of radiolabeled [3H]-Gabapentin in assay buffer containing Hepes-KOH 10 mM, pH 7.4. NSB (non specific binding) was measured by adding 10 μM pregabalin. After 60 min incubation at 27° C., binding reaction was terminated by filtering through Multiscreen GF/C (Millipore) presoaked in 0.5% polyethyleneimine in Vacuum Manifold Station, followed by 3 washes with ice-cold filtration buffer containing 50 mM Tris-HCl, pH 7.4. Filter plates were dried at 60° C. for 1 hour and 30 μl of scintillation cocktail were added to each well before radioactivity reading. Readings were performed in a Trilux 1450 Microbeta radioactive counter (Perkin Elmer).

[2] = transfected CHO-K1 cell membranes, 1 nM [3H]-DAMGO, read-out: μ binding
[3] = human α2δ-1 enriched membranes, 15 nM [3H]-Gabapentin, read-out: α2δ-1 binding

T1 sequence (P35372 whole entry): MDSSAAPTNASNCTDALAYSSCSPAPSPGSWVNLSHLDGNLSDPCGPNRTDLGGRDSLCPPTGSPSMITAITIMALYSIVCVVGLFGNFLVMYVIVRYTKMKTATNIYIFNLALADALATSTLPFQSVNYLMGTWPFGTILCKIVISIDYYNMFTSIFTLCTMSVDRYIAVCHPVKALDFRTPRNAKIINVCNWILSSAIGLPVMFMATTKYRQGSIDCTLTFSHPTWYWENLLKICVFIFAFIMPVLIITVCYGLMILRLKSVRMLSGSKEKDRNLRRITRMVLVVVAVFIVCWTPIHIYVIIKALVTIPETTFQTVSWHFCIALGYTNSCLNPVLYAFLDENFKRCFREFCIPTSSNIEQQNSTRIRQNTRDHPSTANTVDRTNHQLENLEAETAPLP

| SMILES | Ki (human μ-opioid receptor) | Ki [1] | Ki (human μ-opioid receptor; [2]) | Ki [1, 3] |
| --- | --- | --- | --- | --- |
| NCCc1cc(Cc2ccc(O)cc2)n(-c2ccc(Cl)cc2Cl)n1 [Example 58, 4-{[3-(2-Aminoethyl)-1-(2,4-dichlorophenyl)-1H-pyrazol-5-yl]methyl}phenol] | < 100 nM | 3000 to 5000 nM |  |  |
| C[C@@H](N)c1cc(Cc2ccc(O)cc2)n(-c2ccc(Cl)cc2Cl)n1 [Example 62, (R)-4-{[3-(1-Aminoethyl)-1-(2,4-dichlorophenyl)-1H-pyrazol-5-yl]methyl}phenol] | < 100 nM | 500 to 3000 nM |  |  |
| COc1ccc(Oc2cc(CN)nn2-c2ccc(Cl)cc2Cl)cc1 [Example 17, [1-(2,4-Dichlorophenyl)-5-(4-methoxyphenoxy)-1H-pyrazol-3-yl]methanamine] | 100 to 500 nM | 3000 to 5000 nM |  |  |
| COc1cccc(Cc2cc(CN)nn2-c2ccc(Cl)cc2Cl)c1 [Example 8, [1-(2,4-Dichlorophenyl)-5-(3-methoxybenzyl)-1H-pyrazol-3-yl]methanamine] |  |  | > 500 nM | 500 to 3000 nM |
| COc1ccc(-n2nc(CN)cc2Cc2ccc(O)cc2)cc1 [Example 6, 4-{[3-(Aminomethyl)-1-(4-methoxyphenyl)-1H-pyrazol-5-yl]methyl}phenol] |  |  | > 500 nM | 3000 to 5000 nM |
| CCOc1ccc(Cc2cc(C(C)N)nn2-c2ccc(Cl)cc2Cl)cc1 (stereo not drawn) [Example 25, 1-[1-(2,4-Dichlorophenyl)-5-(4-ethoxybenzyl)-1H-pyrazol-3-yl]ethanamine] |  |  | > 500 nM | 500 to 3000 nM |
| NCc1cc(Cc2ccc(O)cc2)n(Cc2ccc(Cl)cc2)n1 [Example 45, 4-{[3-(Aminomethyl)-1-(4-chlorobenzyl)-1H-pyrazol-5-yl]methyl}phenol] |  |  | > 500 nM | 500 to 3000 nM |
| NCc1cc(Cc2ccc(O)cc2)n(-c2ccc(Cl)cc2Cl)n1 [Example 38, 4-{[3-(Aminomethyl)-1-(2,4-dichlorophenyl)-1H-pyrazol-5-yl]methyl}phenol] | < 100 nM | 500 to 3000 nM |  |  |
| CC(CN)c1cc(Cc2ccc(O)cc2)n(-c2ccc(Cl)cc2Cl)n1 (stereo not drawn) [Example 59, 4-{[3-(1-Aminopropan-2-yl)-1-(2,4-dichlorophenyl)-1H-pyrazol-5-yl]methyl}phenol] | < 100 nM | > 5000 nM |  |  |
| CCNCc1cc(Cc2ccc(O)cc2)n(CC(C)C)n1 [Example 50, 4-({3-[{Ethylamino)methyl]-1-isobutyl-1H-pyrazol-5-yl}methyl)phenol] |  |  | > 500 nM | 3000 to 5000 nM |
| COc1ccc(Cc2cc(CN)nn2Cc2ccccc2Cl)cc1 [Example 14, [1-(2-Chlorobenzyl)-5-(4-methoxybenzyl)-1H-pyrazol-3-yl]methanamine] |  |  | > 500 nM | 500 to 3000 nM |
| COc1ccc(Cc2cc(CN)nn2-c2ccc(OC)cc2Cl)cc1 [Example 4, [1-(2-Chloro-4-methoxyphenyl)-5-(4-methoxybenzyl)-1H-pyrazol-3-yl]methanamine] | 100 to 500 nM | 500 to 3000 nM |  |  |
| NCc1cc(Cc2ccc(O)cc2)n(Cc2ccccc2)n1 [Example 46, 4-{[3-(Aminomethyl)-1-benzyl-1H-pyrazol-5-yl]methyl}phenol] |  |  | > 500 nM | 3000 to 5000 nM |
| COc1ccc(-n2nc(CN)cc2Cc2ccccc2)cc1 [Example 10, [5-Benzyl-1-(4-methoxyphenyl)-1H-pyrazol-3-yl]methanamine] |  |  | > 500 nM | 500 to 3000 nM |
| NCc1cc(Cc2ccccc2)n(-c2ccc(O)cc2)n1 [Example 35, 4-[3-(Aminomethyl)-5-benzyl-1H-pyrazol-1-yl]phenol] |  |  | > 500 nM | 3000 to 5000 nM |
| NC(=O)CC(N)c1cc(Cc2ccc(O)cc2)n(-c2ccc(Cl)cc2Cl)n1 (stereo not drawn) [Example 77, 3-Amino-3-[1-(2,4-dichlorophenyl)-5-(4-hydroxybenzyl)-1H-pyrazol-3-yl]propanamide] | < 100 nM | > 5000 nM |  |  |
| NCc1cc(Cc2ccccc2)n(-c2ccc(Cl)cc2Cl)n1 [Example 9, [5-Benzyl-1-(2,4-dichlorophenyl)-1H-pyrazol-3-yl]methanamine] |  |  | > 500 nM | 500 to 3000 nM |
| NCc1cc(Cc2ccc(O)cc2)n(-c2ccc(F)cc2Cl)n1 [Example 42, 4-{[3-(Aminomethyl)-1-(2-chloro-4-fluorophenyl)-1H-pyrazol-5-yl]methyl}phenol] | 100 to 500 nM | 500 to 3000 nM |  |  |
| COc1ccc(Cc2cc(CN(C)C)nn2-c2ccc(Cl)cc2Cl)cc1 [Example 21, 1-[1-(2,4-Dichlorophenyl)-5-(4-methoxybenzyl)-1H-pyrazol-3-yl]-N,N-dimethylmethanamine] |  |  | > 500 nM | 3000 to 5000 nM |
| NC(CN1CCOCC1)c1cc(Cc2ccc(O)cc2)n(-c2ccc(Cl)cc2Cl)n1 (stereo not drawn) [Example 73, 4-{[3-(1-Amino-2-morpholinoethyl)-1-(2,4-dichlorophenyl)-1H-pyrazol-5-yl]methyl}phenol] |  |  | > 500 nM | > 5000 nM |
| NC(CC(=O)O)c1cc(Cc2ccc(O)cc2)n(-c2ccc(Cl)cc2Cl)n1 (stereo not drawn) [Example 76, 3-Amino-3-[1-(2,4-dichlorophenyl)-5-(4-hydroxybenzyl)-1H-pyrazol-3-yl]propanoic acid] | 100 to 500 nM | > 5000 nM |  |  |
| NCc1cc(Cc2ccc(O)cc2)n(-c2ccc(Cl)cc2)n1 [Example 40, 4-{[3-(Aminomethyl)-1-(4-chlorophenyl)-1H-pyrazol-5-yl]methyl}phenol] |  |  | > 500 nM | 3000 to 5000 nM |
| C[C@H](N)c1cc(Cc2ccc(O)cc2)n(-c2ccc(Cl)cc2Cl)n1 [Example 61, (S)-4-{[3-(1-Aminoethyl)-1-(2,4-dichlorophenyl)-1H-pyrazol-5-yl]methyl}phenol] | < 100 nM | < 500 nM |  |  |
| CC(N)c1cc(Cc2ccc(NS(C)(=O)=O)cc2)n(-c2ccc(Cl)cc2Cl)n1 (stereo not drawn) [Example 26, N-(4-{[3-(1-Aminoethyl)-1-(2,4-dichlorophenyl)-1H-pyrazol-5-yl]methyl}phenyl)methanesulfonamide] |  |  | > 500 nM | 500 to 3000 nM |
